For 1 substance, EC50 results are on record in US20060241019A1, “Long lasting insulin derivatives and methods thereof” (priority 2003, published 2006).

The test system of this assay is Epididymal fat cells from Wistar rats. The assay can be described thus: Glucose uptake in epididymal fat cells. Format: cell-based. The settings on record: D-[3-3H]Glucose incorporation, rat epididymal fat cells, 2 hour incubation.

Procedure: In addition, glucose uptake in an other source of adipocytes was used to evaluate the in vitro activity. […] The tissue (0.03 g/ml) is degraded by collagenase in modified HEPES solution pH 7.4 at 37° C. Test compound and/or vehicle is incubated with 500 μl aliquots in modified HEPES buffer pH 7.4 and D-[3-3H]Glucose (2.5 μCi/ml) is then added for 2 hour incubation. Test compound-induced the increase of glucose incorporation by more than 50 percent or more (≧50%) relative to the control 2 nM insulin response, indicates possible insulin receptor agonist activity. […] Compounds are screened at 10, 1, 0.1, 0.01 and 0.001 μM.

Consider “(Phe B1)-MPA-(AEES)2-Insulin [Example VI]”, for which it took 15.4 nM to reach a half-maximal effect (EC50).

By EC50 is commonly meant the concentration at which the effect is half-maximal.
